The source of these data is patent US7268212B2, “Ligand of G protein-coupled receptor protein and DNA thereof” (Takeda Pharmaceutical Company Limited, priority 2001, dated 2007).

No end group written: not given here.

For the test, the target named is T1, GPR7 (Homo sapiens, UniProt P48145).
T1 sequence (P48145 1-328): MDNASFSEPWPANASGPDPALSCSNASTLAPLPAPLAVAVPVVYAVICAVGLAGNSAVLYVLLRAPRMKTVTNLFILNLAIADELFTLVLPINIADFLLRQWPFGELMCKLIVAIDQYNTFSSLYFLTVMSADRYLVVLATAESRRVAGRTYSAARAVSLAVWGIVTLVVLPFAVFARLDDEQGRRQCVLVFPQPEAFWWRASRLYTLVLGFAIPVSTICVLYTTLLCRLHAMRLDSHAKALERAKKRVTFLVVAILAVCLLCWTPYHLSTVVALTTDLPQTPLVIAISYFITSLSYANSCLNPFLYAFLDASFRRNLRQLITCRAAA
As to the kind of experiment: Test on binding inhibition of various peptides against human GPR7-expressed CHO cell membrane fraction. Further details: The synthetic primers were constructed so as to amplify the gene in the region to be translated to its receptor protein; expressed in transfected cells; host or cells: CHO cells, membrane fraction. The following applies: iodine-labeled hGPR7L-23; human GPR7-expressed CHO cell membrane fraction 1 μg/well; room temperature 1.5 hour. The protocol: A mixture of 20 μl of hGPR7L-23 (SEQ ID NO:1) (0.1 mM or 1 mM), 20 μl of lactoperoxidase (Sigma; prepared using 10 μg/ml and 0.1M HEPES-NaOH pH7.0), 20 μl of Idoine-125 (manufactured by Amersham, MS-30, 74 MBq), 20 μl of 0.005% hydrogen peroxide (manufactured by Wako Pure Chemical Industries, Ltd.) was allowed to stand at room temperature for 20 to 30 minutes. Then, 600 μl of 0.1% TFA was added to the mixture. The mixture was applied to reverse phase HPLC for separation and the peaks of the two'labeled products were fractionated in a tube charged with 1 mL of DMSO. Immediately, the fraction was stored on ice and an aliquot was provided for measurement of the radioactivity with a γ-counter. The remaining preparation was dispensed and stored at −30° C.
Human GPR7-expressed CHO cells were cultured in a flask. The flask was washed with 5 mM EDTA/PBS to strip the cells off. The cells were stripped off with 5 mM EDTA/PBS and centrifuged for recovery. The recovered cells were suspended in 25 mL of a buffer for preparing membrane fraction (50 mM Tris-HCl, pH7.5, 5 mM EDTA, 0.1% bovine serum albumin (manufactured by Sigma), 0.5 mM PMSF (manufactured by Wako Pure Chemical Industries, Ltd.), 20 μg/mL leupeptin (manufactured by Peptide Research Institute), 0.1 μg/mL pepstatin A (manufactured by Peptide Research Institute) and 4 μg/mL E-64 (manufactured by Peptide Research Institute)), followed by homogenization on ice using a polytron (12,000 rpm, 15 seconds×3 times). The homogenate was centrifuged at 4° C. under 1,000 g for 10 minutes with a high speed cooling centrifuge to recover the supernatant. […] The pellets were recovered and suspended in a small quantity of the buffer for preparing membrane fractions. […]
Using the assay buffer, the human GPR7-expressed CHO cell membrane fraction was diluted in a final concentration of 1 μg/well and iodine-labeled hGPR7L-23 (SEQ ID NO:1) was diluted in a final concentration of […]. […] After 50 μl of a liquid scintillator was dispensed thereto, the radioactivity was counted on a Top Count (Packard) and the data was analyzed in triplet (FIG. 33). […]

Broadly, the IC50 is the point on the concentration scale where inhibition reaches its midpoint. Read a high IC50 as weaker potency in that assay. “WYKPTAGQGYYSVGRAAGLLSGFHRSPYA [Trp1-bovine GPR7L(29)]” gave an IC50 of 0.31 nM.
